The values below are quoted from earlier work in US8664187B2, “Methods of treatment of endobronchial infections” (Novartis AG, priority 2004, dated 2014).

The structures appear in SMILES notation. Where two headings read alike, the source gives them in different places.

Series [1] relates to P. aeruginosa. As to conditions: 300 mg inhaled twice daily, P<0.001 vs placebo.
Series [2] has as its system P. aeruginosa. As to conditions: 600 mg tid aerosolized; 71 CF patients.
Another series relates to P. aeruginosa isolates. As to conditions: CF patients, 1993.

As to `NC[C@H]1O[C@H](O[C@H]2[C@H](O)[C@@H](O[C@H]3O[C@H](CO)[C@@H](O)[C@H](N)[C@H]3O)[C@H](N)C[C@@H]2N)[C@H](N)C[C@@H]1O` [tobramycin], the “average decrease in P. aeruginosa density” value in the series with P. aeruginosa [1] (28 days on/28 days off, Week 0 to Week 20) is on record as 0.8 log10. The “average decrease in P. aeruginosa density” value with P. aeruginosa [1] (Week 0 to Week 4) is 1.9 log10. In the series with P. aeruginosa [2], the spirometry result is recorded as “improved spirometry” and the “sputum density of P. aeruginosa” value is given as “significant reduction in sputum density”. Further, the “concentrations effective in inhibiting the growth of many Gram-negative bacteria” value in the series with Gram-negative bacteria was below 4 µg/mL. In the series on P. aeruginosa isolates, the “MICs of 90% of isolates” value is at most 16 µg/mL and the “MICs of 98% of all isolates” value is at most 128 µg/mL.
